Laboratory results reported in PMC4500165 (Pure and applied chemistry. Chimie pure et appliquee, 2013).

Biological target: T1, peanut agglutinin (PNA) (Arachis hypogaea, UniProt P02872)
T1 sequence (P02872 24-273): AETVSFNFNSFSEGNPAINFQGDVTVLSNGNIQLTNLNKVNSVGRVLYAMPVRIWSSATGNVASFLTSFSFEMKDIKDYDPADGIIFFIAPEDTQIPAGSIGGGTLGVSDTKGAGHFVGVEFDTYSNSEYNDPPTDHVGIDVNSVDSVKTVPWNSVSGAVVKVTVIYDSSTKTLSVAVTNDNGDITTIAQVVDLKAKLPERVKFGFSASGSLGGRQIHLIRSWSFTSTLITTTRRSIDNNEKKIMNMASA
Experiment: isothermal titration calorimetry, one-site model
Format: binding

[N-]=[N+]=Nc1c(F)c(F)c(C(=O)NCCOCCOCCS[C@@H]2O[C@H](CO)[C@@H](O[C@@H]3O[C@H](CO)[C@H](O)[C@H](O)[C@H]3O)[C@H](O)[C@H]2O)c(F)c1F [compound 5, 2-(2-(2-(4-Azido-2,3,5,6-tetrafluorobenzamido)ethoxy)ethoxy)ethyl 4-O-β-D-galactopyranosyl-1-thio-β-D-glucopyranoside]
Kd: 549 µM
